How the values were obtained:
Assay in all cases: relative viability (nuclei count vs DMSO), 5 days (fraction); higher = more cells survive
CX-5461 + AZD7762 = compound: Cc1cnc(CNC(=O)c2c(=O)c3ccc(N4CCCN(C)CC4)nc3n3c2sc2ccccc23)cn1 [CX-5461] + NC(=O)Nc1cc(-c2cccc(F)c2)sc1C(=O)N[C@H]1CCCNC1 [AZD7762] (partner 0.2 µM)
In short: (§1)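 Cells from lung cancer lines were seeded into 1536-well plates and, one day later, dosed by pin tool. Treatments were either a single drug or a fixed dose of an anchor drug with five library-drug doses (not always all listed) in √10 steps. After 5 days, nuclei were stained in a one-step fixation (final 0.05% Triton X-100, 1% formaldehyde, 1 ug/ml Hoechst) and counted on 4× images, and relative viability is the treated-to-vehicle nuclei ratio, as the median of duplicate plates.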

IMD-0354 + Phenformin = compound: O=C(Nc1cc(C(F)(F)F)cc(C(F)(F)F)c1)c1cc(Cl)ccc1O [IMD-0354] + N=C(N)NC(=N)NCCc1ccccc1 [Phenformin] (partner 250 µM)
In short: as §1

CX-5461 + Tozasertib = compound: Cc1cnc(CNC(=O)c2c(=O)c3ccc(N4CCCN(C)CC4)nc3n3c2sc2ccccc23)cn1 [CX-5461] + Cc1cc(Nc2cc(N3CCN(C)CC3)nc(Sc3ccc(NC(=O)C4CC4)cc3)n2)n[nH]1 [Tozasertib] (partner 0.1 µM)
In short: as §1

CX-5461 + Pemetrexed = compound: Cc1cnc(CNC(=O)c2c(=O)c3ccc(N4CCCN(C)CC4)nc3n3c2sc2ccccc23)cn1 [CX-5461] + Nc1nc2[nH]cc(CCc3ccc(C(=O)N[C@@H](CCC(=O)O)C(=O)O)cc3)c2c(=O)[nH]1 [Pemetrexed] (partner 0.2 µM)
In short: as §1

Cell Line	relative viability (CX-5461 + AZD7762; first compound 0.01 µM)	relative viability (CX-5461 + AZD7762; first compound 0.03162 µM)	relative viability (CX-5461 + AZD7762; first compound 0.1 µM)	relative viability (CX-5461 + AZD7762; first compound 0.3162 µM)	relative viability (CX-5461 + AZD7762; first compound 1 µM)	relative viability (IMD-0354 + Phenformin; first compound 0.04 µM)	relative viability (IMD-0354 + Phenformin; first compound 0.1265 µM)	relative viability (IMD-0354 + Phenformin; first compound 0.4 µM)	relative viability (IMD-0354 + Phenformin; first compound 1.265 µM)	relative viability (IMD-0354 + Phenformin; first compound 4 µM)	relative viability (CX-5461 + Tozasertib; first compound 0.01 µM)	relative viability (CX-5461 + Tozasertib; first compound 0.03162 µM)	relative viability (CX-5461 + Tozasertib; first compound 0.1 µM)	relative viability (CX-5461 + Tozasertib; first compound 1 µM)	relative viability (CX-5461 + Pemetrexed; first compound 0.01 µM)	relative viability (CX-5461 + Pemetrexed; first compound 0.03162 µM)	relative viability (CX-5461 + Pemetrexed; first compound 0.1 µM)	relative viability (CX-5461 + Pemetrexed; first compound 0.3162 µM)	relative viability (CX-5461 + Pemetrexed; first compound 1 µM)	relative viability (CX-5461 + Tozasertib; first compound 0.3162 µM)
LOU-NH91	0.787	0.758	0.74	0.475	0.693	0.498	0.393	0.208	0.143	0.166	0.75	0.729	0.648	0.632	0.35	0.377	0.409	0.354	0.344	
LU99A	0.44	0.303	0.212	0.245	0.122	0.529	0.826	0.417	0.218	0.265	0.265	0.259	0.253	0.272	0.197	0.175	0.159	0.188	0.179	0.241
LXF-289	1.16	1.12	1.08		0.873	0.548	0.504	0.329	0.124	0.0658	0.2	0.224	0.16	0.179	0.867	0.933	0.847		0.574	0.179
NCI-H23	0.23	0.224	0.186	0.212	0.167	0.811	0.81	0.313	0.198	0.189	0.311	0.429	0.334	0.568	0.524	0.862	0.7	0.71	0.508	0.362
NCI-H322M	0.531	0.517	0.526	0.523	0.509	0.865	0.796	0.378	0.277	0.375	0.441	0.508	0.49	0.443	0.568	0.558	0.708	0.567	0.62	0.503
NCI-H358	0.546	0.593	0.372	0.474	0.363	0.348	0.241	0.17	0.121	0.0927	0.108	0.0952	0.117	0.0892	0.159	0.157	0.165	0.173	0.156	0.103
NCI-H441	1	1.31	1.11	1.36	0.963	0.79	0.693	0.45	0.177	0.262	0.515	0.742	0.643	0.362	0.261	0.268	0.241	0.242	0.226	0.678
NCI-H460	0.627	0.513	0.295	0.563	0.046	0.514	0.365	0.103	0.0203	0.0155	0.523	0.584	0.462	0.0722	0.0543	0.0602	0.0575	0.0623	0.0755	0.227
NCI-H522	1.09	0.98	0.713		0.79	0.614	0.666	0.464	0.61	0.383	0.521	0.44	0.597	0.646	1.15	1.1	0.832		0.918	
NCI-H596	1.07	1.01	0.965	1.07	0.515	0.852	0.748	0.547	0.898	0.318	0.866	1.04	0.984	0.796	0.47	0.45	0.523	0.504	0.48	0.863
NCI-H647	0.617	0.384	0.489	0.439	0.0774	0.784	0.376	0.283	0.129	0.0531	0.386	0.335	0.307	0.186	0.186	0.165	0.176	0.194	0.158	0.262
NCI-H650	1.03	1.01	0.727	1.05	0.623	0.448	0.451	0.371	0.234	0.2	0.735	0.815	0.715	0.54	1.05	0.986	0.879	0.943	0.873	0.324
NCI-H838	0.971	0.941	1.01	0.698	0.696	0.685	0.448	0.358	0.234	0.207	0.249	0.281	0.271	0.273	0.251	0.248	0.244	0.232	0.241	
NCI-H1355	0.75	0.833	0.613	0.78	0.288	0.437	0.415	0.432	0.24	0.236	0.579	0.594	0.53	0.548	1.08	1.08	1.03	1.02	0.853	0.323
NCI-H1395	0.377	0.328	0.382	0.384	0.337	0.489	0.452	0.382	0.313	0.267	0.811	0.796	0.757	0.588	0.835	0.846	0.816	0.437	0.488	0.574
NCI-H1437	1.1	1.05	1.11	1.09	1.04	0.317	0.279	0.195	0.15	0.2	0.404	0.459		0.366	0.31	0.307	0.268	0.307	0.29	0.367

Source: the supplement of paper PMC10307832
